The source of these data is patent publication US9315498B2, “Arlethynyl derivatives” (Hoffmann-La Roche Inc., priority 2010, dated 2016).

One may read the EC50 as the concentration giving half of the maximal effect.

The target in the assay is human mGlu5a receptor (Homo sapiens (Human), UniProt P41594). Briefly: Intracellular Ca2+ mobilization assay (mGlu5 PAM). It is filed as cell-based. As to conditions: for EC50: HEK-293 cells stably transfected with human mGlu5a, L-glutamate added at EC20 after pre-incubation with test compound, read-out: EC50 (nM) mGlu5PAM; for Emax: maximal response in % of the maximal stimulatory effect obtained with saturating concentrations of L-glutamate, read-out: Eff. (%). On the procedure: A monoclonal HEK-293 cell line stably transfected with a cDNA encoding for the human mGlu5a receptor was generated; for the work with mGlu5 Positive Allosteric Modulators (PAMs), a cell line with low receptor expression levels and low constitutive receptor activity was selected to allow the differentiation of agonistic versus PAM activity. Cells were cultured according to standard protocols (Freshney, 2000) in Dulbecco's Modified Eagle Medium with high glucose supplemented with 1 mM glutamine, 10% (vol/vol) heat-inactivated bovine calf serum, Penicillin/Streptomycin, 50 μg/ml hygromycin and 15 μg/ml blasticidin (all cell culture reagents and antibiotics from Invitrogen, Basel, Switzerland).
About 24 hrs before an experiment, 5×10^4 cells/well were seeded in poly-D-lysine coated, black/clear-bottomed 96-well plates. The cells were loaded with 2.5 μM Fluo-4AM in loading buffer (1×HBSS, 20 mM HEPES) for 1 hr at 37° C. and washed five times with loading buffer. The cells were transferred into a Functional Drug Screening System 7000 (Hamamatsu, Paris, France), and 11 half logarithmic serial dilutions of test compound at 37° C. were added and the cells were incubated for 10-30 min. with on-line recording of fluorescence. Following this pre-incubation step, the agonist L-glutamate was added to the cells at a concentration corresponding to EC20 (typically around 80 μM) with on-line recording of fluorescence; in order to account for day-to-day variations in the responsiveness of cells, the EC20 of glutamate was determined immediately ahead of each experiment by recording of a full dose-response curve of glutamate.
Responses were measured as peak increase in fluorescence minus basal (i.e. fluorescence without addition of L-glutamate), normalized to the maximal stimulatory effect obtained with saturating concentrations of L-glutamate. Graphs were plotted with the % maximal stimulatory using XLfit, a curve fitting program that iteratively plots the data using Levenburg Marquardt algorithm. The single site competition analysis equation used was y=A+((B−A)/(1+((x/C)D))), where y is the % maximal stimulatory effect, A is the minimum y, B is the maximum y, C is the EC50, x is the log10 of the concentration of the competing compound and D is the slope of the curve (the Hill Coefficient). From these curves the EC50 (concentration at which half maximal stimulation was achieved), the Hill coefficient as well as the maximal response in % of the maximal stimulatory effect obtained with saturating concentrations of L-glutamate were calculated.
A depression of the signal observed after addition of the EC20 concentration of L-glutamate was indicative of an inhibitory activity of the test compound.
On the technique in general: Calcium assays in cells follow changes in intracellular calcium, usually with a dye or a luminescent sensor.

Sequence of human mGlu5a receptor (P41594 other isoform, or with tags, fused parts or gaps): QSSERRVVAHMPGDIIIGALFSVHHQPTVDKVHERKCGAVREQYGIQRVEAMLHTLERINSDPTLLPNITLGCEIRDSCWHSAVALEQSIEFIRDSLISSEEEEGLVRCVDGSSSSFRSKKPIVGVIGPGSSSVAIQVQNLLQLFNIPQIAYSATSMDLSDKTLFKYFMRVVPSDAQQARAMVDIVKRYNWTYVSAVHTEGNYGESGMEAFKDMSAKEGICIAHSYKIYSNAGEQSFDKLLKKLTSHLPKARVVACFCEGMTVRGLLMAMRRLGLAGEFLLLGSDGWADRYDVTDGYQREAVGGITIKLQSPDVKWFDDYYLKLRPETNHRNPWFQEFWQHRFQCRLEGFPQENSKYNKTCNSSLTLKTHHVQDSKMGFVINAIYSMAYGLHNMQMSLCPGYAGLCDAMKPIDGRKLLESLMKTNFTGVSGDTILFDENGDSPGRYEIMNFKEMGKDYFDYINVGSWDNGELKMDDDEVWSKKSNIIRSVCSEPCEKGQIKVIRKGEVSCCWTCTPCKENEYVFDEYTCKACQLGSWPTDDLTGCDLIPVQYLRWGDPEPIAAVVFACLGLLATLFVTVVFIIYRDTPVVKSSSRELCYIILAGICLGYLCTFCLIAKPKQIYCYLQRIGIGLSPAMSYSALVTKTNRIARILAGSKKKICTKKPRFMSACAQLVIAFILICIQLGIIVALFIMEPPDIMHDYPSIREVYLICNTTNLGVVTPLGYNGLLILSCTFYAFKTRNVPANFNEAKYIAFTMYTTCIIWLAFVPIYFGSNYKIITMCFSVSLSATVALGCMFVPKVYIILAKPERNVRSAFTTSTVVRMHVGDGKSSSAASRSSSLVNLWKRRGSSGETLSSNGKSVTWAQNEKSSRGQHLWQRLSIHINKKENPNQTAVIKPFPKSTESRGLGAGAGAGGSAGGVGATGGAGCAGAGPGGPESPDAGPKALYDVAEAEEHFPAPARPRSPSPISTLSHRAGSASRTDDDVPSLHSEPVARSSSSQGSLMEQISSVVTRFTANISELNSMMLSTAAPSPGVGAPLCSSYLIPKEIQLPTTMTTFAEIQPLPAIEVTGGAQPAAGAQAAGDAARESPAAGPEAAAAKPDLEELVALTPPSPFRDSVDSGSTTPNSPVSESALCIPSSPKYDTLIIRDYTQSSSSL

In the case of `O=C1O[C@H]2CCCC[C@H]2N1c1ccc(C#Cc2ccccc2)cn1` (racemic) [Example 47, (6SR,7RS)-3-(5-Phenylethynyl-pyridin-2-yl)-hexahydro-benzooxazol-2-one], the EC50 was 36 nM and the Emax is 109%.

With `CN1C(=O)N(c2ccc(C#Cc3cncnc3)cn2)CC1(C)C` [Example 55, 3,4,4-Trimethyl-1-(5-pyrimidin-5-ylethynyl-pyridin-2-yl)-imidazolidin-2-one], the concentration for a half-maximal effect (EC50) came to 54 nM and the Emax turned out to be 110%.

On to `CC1(C)CCN(c2ncc(C#Cc3ccccc3)cn2)C(=O)C1` [Example 134, 4,4-Dimethyl-1-(5-phenylethynyl-pyrimidin-2-yl)-piperidin-2-one], for which the EC50 was 42 nM and the Emax worked out at 90%.

Take `COC1C(=O)N(c2ccc(C#Cc3cccc(C)c3)cn2)CC1(C)C` (racemic) [Example 64, (RS)-3-Methoxy-4,4-dimethyl-1-(5-m-tolylethynyl-pyridin-2-yl)-pyrrolidin-2-one]: the EC50 came to 87 nM and the Emax turned out to be 56%.

Regarding `CC1(C)CCN(c2ccc(C#Cc3cccc(Cl)c3)cn2)C(=O)O1` [Example 77, 3-[5-(3-Chloro-phenylethynyl)-pyridin-2-yl]-6,6-dimethyl-[1,3]oxazinan-2-one], the EC50 came to 12 nM and the Emax was found to be 72%.

For `CC1(C)CCCN(c2ccc(C#Cc3ccccc3)cn2)C(=O)O1` [Example 93, 7,7-Dimethyl-3-(5-phenylethynyl-pyridin-2-yl)-[1,3]oxazepan-2-one], the EC50 was found to be 36 nM and the Emax turned out to be 104%.

With `CN1C(=O)N(c2ccc(C#Cc3cccc(Cl)c3)nn2)CC1(C)C` [Example 155, 1-(6-((3-Chlorophenyl)ethynyl)pyridazin-3-yl)-3,4,4-trimethylimidazolidin-2-one], the EC50 worked out at 73 nM and the Emax was determined as 95%.

In the case of `CC1(C)CN(c2ccc(C#Cc3ccc(F)c(F)c3)cn2)C(=O)O1` [Example 33, 3-[5-(3,4-Difluoro-phenylethynyl)-pyridin-2-yl]-5,5-dimethyl-oxazolidin-2-one], the EC50 amounted to 32 nM and the Emax came out at 44%.

As for `Cc1cc(C#Cc2ccccc2)cnc1N1CC(C)(C)CC1=O` [Example 41, 4,4-Dimethyl-1-(3-methyl-5-phenylethynyl-pyridin-2-yl)-pyrrolidin-2-one], the EC50 stood at 58 nM and the Emax was found to be 89%.

On to `CC1CN(c2ncc(C#Cc3cccc(F)c3)cn2)C(=O)OC1(C)C` (racemic) [Example 148, (RS)-3-[5-(3-Fluoro-phenylethynyl)-pyrimidin-2-yl]-5,6,6-trimethyl-[1,3]oxazinan-2-one], for which the EC50 was found to be 39 nM and the Emax stood at 75%.

Regarding `COCC1CCN(c2ccc(C#Cc3ccccc3)cn2)C(=O)O1` (racemic) [Example 105, (RS)-6-Methoxymethyl-3-(5-phenylethynyl-pyridin-2-yl)-[1,3]oxazinan-2-one], the EC50 was found to be 68 nM and the Emax was found to be 51%.

Turning to `CN1C(=O)N(c2ccc(C#Cc3cncc(F)c3)cn2)CC1(C)C` [Example 49, 1-[5-(5-Fluoro-pyridin-3-ylethynyl)-pyridin-2-yl]-3,4,4-trimethyl-imidazolidin-2-one], the EC50 amounted to 37 nM and the Emax is 91%.

`CC1(C)CCN(c2ccc(C#Cc3cccnc3)cn2)C(=O)O1` [Example 73, 6,6-Dimethyl-3-(5-pyridin-3-ylethynyl-pyridin-2-yl)-[1,3]oxazinan-2-one]: the EC50 came to 59 nM and the Emax was 98%.

For `CC(C)(C)C1(C)CN(c2ccc(C#Cc3ccccc3)cn2)C(=O)O1` (racemic) [Example 19, (5RS)-5-tert-Butyl-5-methyl-3-(5-phenylethynyl-pyridin-2-yl)-oxazolidin-2-one], the EC50 is 27 nM and the Emax was 85%.

For the compound `CC1(C)CC(=O)N(c2ncc(C#Cc3ccccc3)cn2)C1` [Example 115, 4,4-Dimethyl-1-(5-phenylethynyl-pyrimidin-2-yl)-pyrrolidin-2-one], the EC50 was found to be 13 nM and the Emax was determined as 109%.

`CCN1C(=O)N(c2ncc(C#Cc3ccc(F)cc3)cn2)CC1(C)C` [Example 143, 1-[5-(4-Fluoro-phenylethynyl)-pyrimidin-2-yl]-3-ethyl-4,4-dimethyl-imidazolidin-2-one]: the EC50 was found to be 47 nM and the Emax came out at 68%.

As to `CC1(C)CCN(c2ccc(C#Cc3ccc(F)c(F)c3)cn2)C(=O)O1` [Example 80, 3-[5-(3,4-Difluoro-phenylethynyl)-pyridin-2-yl]-6,6-dimethyl-[1,3]oxazinan-2-one], the EC50 is 37 nM and the Emax is 69%.

Turning to `O=C1OC2(CC2)CN1c1ccc(C#Cc2ccccc2)cn1` [Example 9, 6-(5-Phenylethynyl-pyridin-2-yl)-4-oxa-6-aza-spiro[2.4]heptan-5-one], the EC50 amounted to 15 nM and the Emax stood at 83%.

On to `CN1C(=O)N(c2ccc(C#Cc3ccccc3)cn2)CC12CCCC2` [Example 44, 1-Methyl-3-(5-phenylethynyl-pyridin-2-yl)-1,3-diaza-spiro[4.4]nonan-2-one], for which the EC50 was 29 nM and the Emax was 92%.

On to `O=C1O[C@H]2CCC[C@H]2N1c1ccc(C#Cc2cncc(F)c2)cn1` (racemic) [Example 24, (3aRS,6aSR)-3-[5-(5-Fluoro-pyridin-3-ylethynyl)-pyridin-2-yl]-hexahydro-cyclopentaoxazol-2-one], for which the EC50 is 35 nM and the Emax worked out at 73%.

In the case of `CC1CN(c2ncc(C#Cc3ccccc3)cn2)C(=O)OC1(C)C` (racemic) [Example 145, (RS)-5,6,6-Trimethyl-3-(5-phenylethynyl-pyrimidin-2-yl)-[1,3]oxazinan-2-one], the EC50 amounted to 38 nM and the Emax amounted to 93%.

As to `CC(C)N1C(=O)N(c2ccc(C#Cc3ccccc3)cn2)CC1(C)C` [Example 18, 3-Isopropyl-4,4-dimethyl-1-(5-phenylethynyl-pyridin-2-yl)-imidazolidin-2-one], the EC50 was found to be 39 nM and the Emax is 133%.

Consider `CCN1C(=O)N(c2ccc(C#Cc3ccccc3)cn2)C2CCCCC21` (stereo not drawn) [Example 99, (3aSR,7aRS)-(3aRS,7RS)-1-Ethyl-3-(5-phenylethynyl-pyridin-2-yl)-octahydro-benzoimidazol-2-one], for which the EC50 worked out at 18 nM and the Emax is 90%.

Regarding `CC1CN(c2ncc(C#Cc3cc(F)ccc3F)cn2)C(=O)OC1(C)C` (racemic) [Example 146, (RS)-3-[5-(2,5-Difluoro-phenylethynyl)-pyrimidin-2-yl]-5,6,6-trimethyl-[1,3]oxazinan-2-one], the EC50 came out at 69 nM and the Emax was 64%.

In the case of `CC1(C)CCN(c2cnc(C#Cc3cccnc3)cn2)C(=O)C1` [Example 162, 4,4-Dimethyl-1-(5-(pyridin-3-ylethynyl)pyrazin-2-yl)piperidin-2-one], the EC50 stood at 681 nM and the Emax is 76%.

In the case of `CN1C(=O)N(c2ccc(C#Cc3cncc(F)c3)cn2)C2CCCCC21` (stereo not drawn) [Example 86, (3aSR,7aRS)-(3aRS,7RS)-1-[5-(5-Fluoro-pyridin-3-ylethynyl)-pyridin-2-yl]-3-methyl-octahydro-benzoimidazol-2-one], the EC50 was found to be 32 nM and the Emax came out at 52%.

As for `CC1(C)CN(c2ccc(C#Cc3ccccc3)cn2)C(=O)N1` [Example 15, 4,4-Dimethyl-1-(5-phenylethynyl-pyridin-2-yl)-imidazolidin-2-one], the half-maximal effective concentration (EC50) is 130 nM and the Emax came out at 101%.

Turning to `COC1CN(c2ccc(C#Cc3ccccc3)cn2)C(=O)OC1(C)C` (racemic) [Example 114, (RS)-5-Methoxy-6,6-dimethyl-3-(5-phenylethynyl-pyridin-2-yl)-[1,3]oxazinan-2-one], the EC50 stood at 22 nM and the Emax amounted to 57%.

Regarding `O=C1O[C@H]2CCC[C@H]2N1c1ccc(C#Cc2cccnc2)cn1` (racemic) [Example 23, (3aRS,6aSR)-3-(5-Pyridin-3-ylethynyl-pyridin-2-yl)-hexahydro-cyclopentaoxazol-2-one], the EC50 was 12 nM and the Emax worked out at 92%.
